Results from patent US12215123B2, “Cordycepin-based derivatized compound with anti-tumor effect” (NANJING TECH UNIVERSITY, priority 2022, dated 2025).

Assays:
Format in all cases: in vivo, C57BL/6j nude mice
[1] = tested on: pancreatic cancer Pan02-luc cells; experiment: Mouse transplanted pancreatic cancer model, survival; settings: intragastric 500 ug/time/animal every day for 24 days, control 41 days
Description: The feeding of the mouse model in the drug evaluation follows that: mice are fed and treated in a laminar flow cabinet, with 5 nude mice in each cage, drinking water and feedstuffs are added once every 3 days, and paddings are replaced once a week; a number of mice kept in each cage is no more than 5, the mice in separate cages are kept in groups as far as possible, and the mice should not be kept in a single cage; the animal management must conform to the relevant national standards on animal feeding management, and the behavioral needs of animals should be concerned at the same time to avoid unnecessary stress; the normal physiological and behavioral needs of animals, such as defecation, urination, constant body temperature maintenance, normal activities, posture adjustment and reproduction are met; good ventilation and dry animals are kept; the animals can access to drinking water and food at will, and supplementation, replacement and cleaning operations are easily carried out; a solid and safe environment is provided to avoid accidents of animals, such as escaping or limb trapping in a gap; the animals are avoided from being damaged by sharp edges or protrusions; and the animals are not disturbed during observation. […]

MC-38 colon cancer cells = experiment: Mouse transplanted colon cancer model; settings: MC-38 transplanted mice, 28 days, 500 ug/time/animal intragastric (compound daily, antibody every 4 days); control 1,300 mm^3
Description: (§1) The feeding of the mouse model in the drug evaluation follows that: mice are fed and treated in a laminar flow cabinet, with 5 nude mice in each cage, drinking water and feedstuffs are added once every 3 days, and paddings are replaced once a week; a number of mice kept in each cage is no more than 5, the mice in separate cages are kept in groups as far as possible, and the mice should not be kept in a single cage; the animal management must conform to the relevant national standards on animal feeding management, and the behavioral needs of animals should be concerned at the same time to avoid unnecessary stress; the normal physiological and behavioral needs of animals, such as defecation, urination, constant body temperature maintenance, normal activities, posture adjustment and reproduction are met; good ventilation and dry animals are kept; the animals can access to drinking water and food at will, and supplementation, replacement and cleaning operations are easily carried out; a solid and safe environment is provided to avoid accidents of animals, such as escaping or limb trapping in a gap; the animals are avoided from being damaged by sharp edges or protrusions; and the animals are not disturbed during observation.
A mouse transplanted colon cancer model was established and a drug was evaluated. […]

B16-F10 melanoma cells = experiment: Mouse transplanted melanoma model; settings: B16-F10 transplanted mice, intragastric 500 ug/time/animal every other day, 24 days; blank 1760 mm^3
Description: as §1
A mouse transplanted melanoma model was established and a drug was evaluated. 2.5×10^5 B16-F10 melanoma cells were suspended in 100 μL of PBS to be inoculated into an outer side of thigh of left lower limb of C57BL/6j nude mice. One week later, when the transplanted tumor reached about 100 mm^3, the mice were randomly divided into ten groups, with 10 mice in each group, comprising a blank control group, a cordycepin group, a compound 13 group, a compound 14 group, a compound 17 group, a compound 19 group, a compound 22 group, a compound 26 group, a compound 29 group and a compound 34 group respectively. The blank control group was intragastrically administrated with a nutritional agent such as a corn steep liquor and DMSO as a solvent control every day for 24 consecutive days, and the compound groups were intragastrically administrated with corresponding compounds (500 ug/time/animal in all cases) every other day for 24 consecutive days. […] The mice were killed after the experiment, blood and corresponding tissue samples were collected, tumor bodies were immediately photographed and weighed, and some tumor tissues were fixed in a formalin solution to be further detected. Two vertical diameters (length and width) of the transplanted tumor were measured with a caliper every two days to calculate a size of the transplanted tumor, and a tumor value was calculated according to a formula: tumor volume (mm^3)=[…].

## CC(C)OC(=O)C(C)NP(=O)(COC[C@@H]1CC(O)[C@H](n2cnc3c(NC(=O)c4ccncc4)ncnc32)O1)Oc1ccccc1 (stereo partly shown) [Compound 24, isopropyl((((4-hydroxy-5-(6-(isonicotinamide)-9H-purin-9-yl)tetrahydrofuran-2-yl)methoxy)methyl)(phenoxy)phosphoryl)alanine ester]
[1]
  survival time of the tumor-bearing mice (median survival time): 76 days

## Nc1ncnc2c1ncn2[C@@H]1O[C@H](CO)C[C@H]1O [Cordycepin, 3′-deoxyadenosine]
MC-38 colon cancer cells
  tumor size: 730 mm^3
[1]
  survival time of the tumor-bearing mice (median survival time): 52 days
B16-F10 melanoma cells
  tumor volume: 600 mm^3
